Measurements as given in patent EP1032364B1, “TOPICAL COMPOSITIONS CONTAINING SIALYL SUGARS AND THEIR DERIVATIVES” (E-L Management Corp., priority 1998, dated 2000).
Values joined by “and” are separate entries in the source; they are usually repeats but may differ in a detail not shown here. Equal entries are not always repeated.

Key:
[1] = system: volunteers with a history of skin sensitivity to Balsam of Peru; assay: in vivo skin anti-irritancy test, Balsam of Peru challenge, redness by Minolta chromameter (Example 2); conditions: for % Decrease In Redness: 20 min before Balsam of Peru, 7 volunteers; for preventing irritation caused by a topical irritant (in words): Balsam of Peru challenge, 0.1%
From the text: The following in vivo assay illustrates the effectiveness of sialyl oligosaccharide derivatives, 3'- and 6'-sialyl lactose, in preventing skin irritation. The in vivo assays used to assess efficacy of topical anti-irritants are known to those skilled in the art, examples of such assays may be found in Muizzuddin et al., 1990, J. Soc. Cosmet. Chem. 41:369-378, and Lubach et al. in Topical Corticoids, Maibach & Surber (eds.) Basel, Karger, 1992, pp. 26-41, both of which are incorporated herein by reference in their entirety. The skin anti-irritancy effects of 3'- and 6'- sialyl lactose were tested on 7 volunteers with a history of skin sensitivity to Balsam of Peru. The test compounds were applied to the ventral forearms of the panelists. The material was allowed to absorb for twenty minutes and then Balsam of Peru, an irritant, was applied to the test sites. Skin irritation was measured in terms of increase in skin redness.
The degree of redness was measured with the Minolta chromameter and compared with the positive and negative controls. The positive control was the color of skin treated with Balsam of Peru alone and the negative control was the skin treated with cola material challenged like the test material.

[2] = system: PMN-endothelial cells; assay: in vitro inhibition of adhesion of activated neutrophils to endothelial cells; type: cell-based; conditions: for % Inhibition of Adhesion: neutrophils activated with interleukin-1 or TPA
Description: The following in vitro assay illustrates the effectiveness of the sialyl oligosaccharide derivative, 3' sialyl lactose, in inhibiting the adhesion of cells that express SLeX on their surfaces to cells expressing a selectin receptor. The ability of 3'-sialyl lactose to inhibit cell adhesion was tested using an in vitro assay system. Neutrophils were activated with either interleukin-1 or phorbol ester, TPA, to induce expression of selections and binding to endothelial cells. The activated neutrophils were treated with either 3'-sialyl lactose at 0.01 and 0.02%, sucrose at 4% or a positive control, and then assayed for their ability to bind to PMN-endothelial cells.

[3] = system: volunteers with a history of skin sensitivity to Balsam of Peru; assay: in vivo skin anti-irritancy test, Balsam of Peru challenge, redness by Minolta chromameter (Example 3); conditions: 0.1% topical on ventral forearm, 20 min before Balsam of Peru, 7 volunteers
Description: The following in vivo assay illustrates the effectiveness of 3'-sialyl oligosaccharide derivatives in preventing skin irritation. The skin anti-irritancy effects of various derivatives of 3'-sialyl lactose were tested on 7 volunteers with a history of skin sensitivity to Balsam of Peru. The test compounds benzyl sialyl lactose and ethyl sialyl lactose were applied to the ventral forearms of the panelists. The material was allowed to absorb for twenty minutes and then Balsam of Peru, an irritant, was applied on the test sites. Skin irritation was measured in terms of increase in skin redness. The degree of redness was measured with the Minolta chromameter and compared with the positive and negative controls. The positive control was the color of skin treated with Balsam of Peru alone and the negative control was the skin treated with cola material challenged like the test material.

[4] = 0.1% topical on ventral forearm

With `OC[C@H]1O[C@@H](O[C@H]2[C@H](O)[C@@H](O)C(O)O[C@@H]2CO)[C@H](O)[C@@H](O)[C@H]1O` (some centres unmarked) [Lactose, reference compound] the “% Decrease In Redness” value [1, 4] was 45% and the “preventing irritation caused by a topical irritant (in words)” value (“preventing irritation caused” for short) [1] was “ineffective”.
For `CC(=O)N[C@H]1[C@H]([C@H](O)[C@H](O)CO)O[C@@](O[C@H]2[C@@H](O)[C@@H](CO)O[C@@H](O[C@H]3[C@H](O[C@@H]4O[C@@H](C)[C@@H](O)[C@@H](O)[C@@H]4O)[C@@H](NC(C)=O)C(O)O[C@@H]3CO)[C@@H]2O)(C(=O)O)C[C@@H]1O` (some centres unmarked) [Sialyl Lewis X, NeuAcα2-3βGalβ1-4(Fucα1-3)GlcNAc, reference compound], the “% Decrease In Redness” value [1, 4] was 66%.
For `CC(=O)N[C@H]1[C@H]([C@H](O)[C@H](O)CO)O[C@@](O[C@H]2[C@@H](O)[C@@H](CO)O[C@@H](O[C@H]3[C@H](O)[C@@H](O)C(O)O[C@@H]3CO)[C@@H]2O)(C(=O)O)C[C@@H]1O` (some centres unmarked) [3'-Sialyl lactose, 3'-N acetylneuraminyl-lactose], the “% Decrease In Redness” value [1, 4] was 69% and 67%, the “preventing irritation caused” value [1] was “significant activity” and the “inhibiting the adhesion of cells that express SLeX to cells expressing a selectin receptor (in words)” value ([2]; 0.02%, IL-1 induced neutrophils) was “very effective”. For the same compound, the “% Inhibition of Adhesion” value ([2]; test compound at 0.01%) was 39% and the “% Inhibition of Adhesion” value ([2]; test compound at 0.02%) was 61%.
For `C[C@]12CCC(=O)C=C1CC[C@@H]1[C@@H]2[C@@H](O)C[C@@]2(C)[C@H]1CC[C@]2(O)C(=O)CO` [Hydrocortisone, reference compound], the “% Decrease In Redness” value ([1]; 0.5% topical on ventral forearm) was 66%.
For benzyl sialyl lactose, the “% Decrease In Redness” value [3] was 42.47% and the “% Decrease In Redness” value ([3]; listed as benzyl sialyl lactose) was 42.47%.
`CC(=O)N[C@H]1[C@H]([C@H](O)[C@H](O)CO)OC(O)(C(=O)O)C[C@@H]1O` (some centres unmarked) [Sialic Acid, reference compound] was tested, and the “% Decrease In Redness” value [1, 4] was 31%.
With `CC(=O)N[C@H]1[C@H]([C@H](O)[C@H](O)CO)O[C@@](OC[C@H]2O[C@@H](O[C@H]3[C@H](O)[C@@H](O)[C@H](O)O[C@@H]3CO)[C@H](O)[C@@H](O)[C@H]2O)(C(=O)O)C[C@@H]1O` [6'-Sialyl lactose, 6'-sialyl lactose] the “% Decrease In Redness” value [1, 4] was 57% and the “preventing irritation caused” value [1] was “significant activity”.
`OC[C@H]1O[C@@](CO)(O[C@H]2O[C@H](CO)[C@@H](O)[C@H](O)[C@H]2O)[C@@H](O)[C@@H]1O` [Sucrose, reference compound] was tested, and the “% Inhibition of Adhesion” value ([2]; test compound at 4.0%) was 40%.
For ethyl sialyl lactose, the “% Decrease In Redness” value [3] was 40.6% and the “% Decrease In Redness” value ([3]; listed as lactose ethyl) was 40.6%.
